# Measurements as given in publication PMC4626032, “The YHS-Domain of an Adenylyl Cyclase from Mycobacterium phlei Is a Probable Copper-Sensor Module” (PLoS ONE, 2015).
# Columns and labels:
# MpAC1-182 = system: T1, MpAC1-182; experiment: cAMP formation determined by HPLC; assay type: biochemical, Mycolicibacterium phlei; conditions: 5 mM Mn2+, no Cu2+, pH 8.0, 30 °C; Hill coefficient 1.5 ± 0.2; read-out: SC50 [mM ATP]
# T1 construct: gene MpAC; isolated catalytic domain (CHD), residues 1-182 of 233, YHS domain removed; N-terminal MRGSH6GS tag kept, C-terminal extra Ala; codon-optimized gene in E. coli BL21(DE3)[pRep4]; class III ACs act as head-to-tail dimers
# Description: cAMP formation determined by HPLC on MpAC1-182
# MpAC1-233 = system: T2, MpAC1-233; experiment: cAMP formation determined by HPLC; assay type: biochemical, Mycolicibacterium phlei; conditions: 5 mM Mn2+, no Cu2+, pH 8.0, 30 °C; Hill coefficient 0.9 ± 0.1; read-out: SC50 [mM ATP]
# T2 construct: gene MpAC; full length, residues 1-233 (CHD plus C-terminal YHS domain); His-TEV tag removed, N-terminal GS dipeptide remains; codon-optimized gene in E. coli BL21(DE3)[pRep4]
# Description: cAMP formation determined by HPLC on MpAC1-233
# [1] = biological target: full-length Mycobacterium phlei adenylyl cyclase, untagged MpAC_(1-233) (Mycobacterium phlei); experiment: protein dependence of adenylyl cyclase activity; dimer to monomers; dissociation constant calculated from the protein dependance of the AC activity; data not shown
Km (MpAC1-182) [mM],Km (MpAC1-233) [mM],Kd [1] [nM],Molecule
0.9 ± 0.22,2.11 ± 0.54,–,Nc1ncnc2c1ncn2[C@@H]1O[C@H](COP(=O)(O)OP(=O)(O)OP(=O)(O)O)[C@@H](O)[C@H]1O [ATP]
–,–,160,"full-length Mycobacterium phlei adenylyl cyclase, untagged MpAC_(1-233) (enzyme)"
